{
  "source": "patent US6277866A",
  "about": "“1-benzyl-4[(5,6-dimethoxy-2-fluoro-1-indanon)-2-yl]methylpiperidine” (priority 1999, dated 2001)",
  "biological_target": "T1, acetylcholinesterase (Rattus norvegicus, UniProt P37136)",
  "T1 construct": "Using a rat brain homogenate as a source of acetylcholinesterase; from tissue; host or cells: rat brain homogenate",
  "T1 sequence (P37136 32-614)": "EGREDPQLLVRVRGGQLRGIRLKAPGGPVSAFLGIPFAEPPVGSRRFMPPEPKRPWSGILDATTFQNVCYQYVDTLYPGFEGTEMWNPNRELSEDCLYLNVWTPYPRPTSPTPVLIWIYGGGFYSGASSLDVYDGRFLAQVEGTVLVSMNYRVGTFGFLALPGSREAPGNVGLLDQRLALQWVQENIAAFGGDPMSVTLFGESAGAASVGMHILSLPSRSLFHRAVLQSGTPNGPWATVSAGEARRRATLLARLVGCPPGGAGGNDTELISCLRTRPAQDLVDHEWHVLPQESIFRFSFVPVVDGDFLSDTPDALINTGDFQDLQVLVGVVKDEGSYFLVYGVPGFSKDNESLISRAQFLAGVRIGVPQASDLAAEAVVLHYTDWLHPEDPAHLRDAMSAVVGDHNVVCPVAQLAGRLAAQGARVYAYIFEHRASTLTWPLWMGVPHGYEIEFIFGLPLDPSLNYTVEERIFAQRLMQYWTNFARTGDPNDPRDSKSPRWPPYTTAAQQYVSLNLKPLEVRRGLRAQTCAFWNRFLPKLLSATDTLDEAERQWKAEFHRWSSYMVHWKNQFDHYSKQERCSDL",
  "assay": "Inhibitory action on acetylcholinesterase in vitro (rat brain homogenate, Ellman method)",
  "type": "biochemical",
  "settings": "acetylthiocholine substrate, DTNB, 412 nm, compounds dissolved in physiological saline, read-out: 50% inhibitory concentration (IC50) on acetylcholinesterase",
  "protocol": "Inhibitory action on acetylcholinesterase in vitro\nUsing a rat brain homogenate as a source of acetylcholinesterase, its esterase activity was measured in accordance with the method of Ellman et al^1). Acetylthiocholine as the substrate, sample and DTNB (5,5'-dithiobis(2-nitrobenzoic acid)) were added to the homogenate and incubated, whereby the produced thiocholine was reacted with DTNB and the resulting yellow product was measured for the change of absorbance at 412 nm to determine the acetylcholinesterase activity.\nEach of the following compounds was used after dissolved in physiological saline.",
  "note": "Where a name gives a salt, the structure may show the parent alone.",
  "data": [
    {"smiles": "COc1cc2c(cc1OC)C(=O)C(F)(CC1CCN(Cc3ccccc3)CC1)C2", "note": "(stereo not shown) [Compound 1, 1-benzyl-4-[5,6-dimethoxy-2-fluoro-1-indanon)-2-yl]methylpiperidine hydrochloride]", "values": [
      {"measurement": "IC50", "result": 1.3, "unit": "nM"}
    ]}
  ]
}
